Reference: a melting point compilation (Tetko et al.; mined from patent text by program, amines drawn as free bases though some values may be those of a salt)

Compound | melting point [°C]
Nc1c([N+](=O)[O-])cc(O)cc1[N+](=O)[O-] | 230
COc1cc(-c2ccccc2F)c(Cl)cc1C(=O)N1Cc2ccc(C(=O)O)n2Cc2ccccc21 | 192 to 194
CCC12CCC3C4CCC(=O)C=C4CCC3C1CCC2OC (stereo not drawn) | 117 to 119
CCOC(=O)C1=C(C)NC(C#N)=C(C(=O)OCC)C1c1ccccc1C(F)(F)F (stereo not drawn) | 140 to 143
CC(C)Oc1ccc(CCCOc2cc(CCC(=O)O)n(-c3ccccc3)n2)c(Oc2ccc(Cl)cc2Cl)n1 | 60 to 62
C=CC[C@H]1CC(C(=O)OCC[Si](C)(C)C)=C[C@@H](OC(C)C)[C@@H]1NC(C)=O | 64 to 65
CCCCc1nn(-c2cc(N)ccc2Cl)c(=O)n1Cc1ccc(-c2ccccc2S(=O)(=O)NC(=O)OC(C)(C)C)cc1F | 208 to 210
COc1ccc2[nH]c(CCCCCCCCCCCCCCO)cc2c1 | 68 to 69
CN(c1ccc(O)cc1)c1ncnc2cc(Cl)ccc12 | 165
COc1nc(C)cnc1N(C(=O)OCC(C)C)S(=O)(=O)c1cccnc1-c1ccc([Si](C)(C)C)cc1 | 132 to 134
Cc1cc(Nc2cncc(Nc3ccc(Cl)c(OCCN(C)C)c3)n2)n[nH]1 | 145 to 147
NS(=O)(=O)c1ccc(-c2cn(-c3nc(-c4ccc(C(F)(F)F)cc4)cc(C(F)(F)F)n3)cn2)cc1 | 292
CN(Cc1ccc([N+](=O)[O-])cc1)C1CCN(c2ccc(NS(C)(=O)=O)cc2)CC1 | 167 to 168
Cc1ccc2[nH]c(-c3ccccc3)c(CCN3CCCCC3)c2c1 | 163 to 164
Cc1cc(Oc2ccc(N)cc2)ccc1-c1ccc(Oc2ccc(N)cc2)cc1C | 140
COc1cc2ccc(CC(=S)N3CCOCC3)cc2c(C)c1OC | 100 to 103
OC(c1ccc(Cl)cc1)(c1ccc(Cl)cc1)c1cn[nH]c1 | 135 to 137
CC1(C)N=C(n2ccc(O)cc2=O)c2cc(Br)ccc2O1 | 171 to 172
CCOC(=O)c1cnc(OCC)c2c(C)n[nH]c12 | 200
O=C(O)CCCN(C(=O)c1ccc(Cl)cc1Cl)c1cccc2ccccc12 | 134 to 136

Compound | melting point [°C]
CCOC(=O)C=C(C(=O)OCC)c1ccc(C(Br)Br)cc1 | 89 to 92.5
O=C(O)c1cc(NCc2c(F)c(F)c(C(F)(F)F)c(F)c2F)ccc1[N+](=O)[O-] | 121
CCc1c(C)cc(C(=O)NC(C(=O)OC)c2cccs2)c(=O)n1Cc1ccc(F)cc1 (stereo not drawn) | 182 to 184
O=C1Nc2ccc(Cl)cc2C(c2ccccc2)=N[C@@H]1Cc1ccccc1 | 154 to 157
O=C(NO)c1ccc(C(=O)Nc2cccc(Nc3nc(-c4cccnc4)cs3)c2)cc1 | 206
COc1cc(N)c(Cl)cc1C(=O)NCC1CCN(CCCCC(=O)c2ccccc2)CC1 | 100 to 102
COc1cccc2sc(C3CCNC(C)C3)cc12 (stereo not drawn) | 70 to 73
CNC(=O)n1cnc(C)c1Br | 98.4 to 100
Oc1cnccc1CCCOc1cccnc1Nc1cccc(Br)c1 | 138 to 141
NC(=O)c1cc2c(cc1OCC1CCCCC1)OCCC[C@H]2O | 164 to 165
CC(NC(=O)c1ccc(Cl)cc1)c1cccc2ccccc12 (stereo not drawn) | 117 to 118
CSc1nccc(-c2cc(C)ccc2NC(=O)C(C)(C)C)n1 | 119 to 120
COc1ccc(C=N[C@H]2COc3c(F)ccc(OC)c3C2)cc1 | 96.8 to 97.3
CC(C)(Cc1ccc(OCCCC(=O)O)cc1)NCC(O)c1cc(O)cc2c1OCC(=O)N2 (stereo not drawn) | 201 to 204
CCNC(=O)c1nn(-c2ccc(Cl)cc2)c(=O)c2c(N)scc12 | 203 to 205
CCC(=O)c1c(SC)sc(C#N)c1CC | 66 to 67
COc1ccccc1COc1ccc(S(=O)(=O)c2ccc(C)nc2Nc2cc(OC)c(OC)cc2C)cc1 | 62 to 66
Cc1cc2c([C@@H]3C[C@H]3CNC(=O)C(F)(F)F)cccn2n1 (relative stereo) | 136 to 138
Nc1cc(C(F)(F)F)c(-c2cc(Br)c(N)cc2C(F)(F)F)cc1Br | 154 to 157
Cc1cccc(C(=O)n2nc(Nc3cccc(OCC(=O)NCCN4CCOCC4)c3)nc2N)c1 | 145 to 147

Compound | melting point [°C]
c1ccc(C2(c3ccccc3)CCSCC2)cc1 | 134
COC(=O)c1ccc(CN(OC)C(=O)C=C(O)C(=O)O)cc1 | 123 to 125
CC(=O)Nc1cc(Cl)c(C)c(Cl)c1O | 175 to 176
Cc1ccc2ncnc(N3CCc4ccc(Cl)cc43)c2c1 | 138 to 141
O=C1c2ccccc2C2C(c3ccccc31)C2(F)F (stereo not drawn) | 150
Cc1nccc(N2CCC(O)(C(=O)N3CCN(C(=O)c4ccc(Br)cc4)CC3)CC2)n1 | 114 to 117
O=C(O)CCc1ccc(OCCCCc2cc(-c3ccc(C(F)(F)F)cc3)no2)cc1 | 130 to 131
Cc1cn(C2C=CC(CO)O2)c(=O)[nH]c1=S (stereo not drawn) | 117 to 118
CC1(C)CC2(CC(C)(C)N1c1nc(Cl)nc(Cl)n1)OCCO2 | 169 to 172
NC(=O)Nc1nc2n(n1)Cc1ccccc1-2 | 261 to 263
COc1cc2c(cc1Cl)C(=O)CC(C)O2 (stereo not drawn) | 96 to 100
O=Cc1ccc2c(c1)c1ccccc1n2CCCCCCCCCCn1c2ccccc2c2cc(C=O)ccc21 | 122
CCOC(=O)c1c(O)c2cc(C)ccc2n(Cc2ccc(F)cc2)c1=O | 130
Cc1nc2cc(C(=O)NC3CC3)c(NC(=O)c3cc(C(F)(F)F)nn3-c3ncccc3Cl)c(Cl)c2nc1C | 255 to 258
Cc1c(C)c2c(c(C)c1N)CC(C)(CN1CC=C(c3c[nH]c4ccccc34)CC1)O2 (stereo not drawn) | 169 to 173
CC1(C)CC(=O)c2c(Cc3ccccc3)cn(-c3ccccn3)c2C1 | 111 to 113
CCOC(=O)CS(=O)CCSc1cc(C(C)(C)C)c(O)c(C(C)(C)C)c1 (stereo not drawn) | 110
COC(=O)c1ccc(Cc2cn(C)c3ccc([N+](=O)[O-])cc23)c(OC)c1 | 144 to 146
CC(C)c1nn(-c2ccc(C(F)(F)F)cn2)cc1CCCCOc1ccccc1CC(=O)O | 125 to 126
Cc1cc(-c2nc3cccnn3c2-c2ccnc(NC(=O)c3ccsc3)c2)ccc1F | 217 to 218

Further lines, results first:

melting point [°C] | Compound
166 to 167 | COc1ccc2c(c1)COc1c-2ccc2c(OC)cccc12
131 to 133 | O=C(O)CCC(=O)c1c(-c2ccccc2)cc2ccccn12
119 to 121 | CCc1noc(C)c1-c1c(C(O)CN(C)C)c2ccccc2n1C (stereo not drawn)
81 | COC(=O)c1ccc(OCCNC(=O)OCc2ccccc2)c(Cl)c1
128 | Cc1cc2ccccc2nc1NN
79 to 81 | CCN(CC)CCNC(=O)c1cc(I)cc2c(F)ccnc12
90 to 91 | O=c1[nH]c(=O)n(Cc2cccc(OCc3noc(-c4ccc(C(F)(F)F)cc4)n3)c2)o1
38 to 42 | CC(C)(C)C(=O)C(Br)c1ccccc1 (stereo not drawn)
197 to 201 | O=C(CCC(NS(=O)(=O)c1ccc2oc3ccccc3c2c1)C(=O)O)NCCc1ccccc1 (stereo not drawn)
157 to 158 | O=C(CCc1oc(-n2cncn2)nc1-c1ccc(Cl)cc1)NCCCl
87 to 90 | COC(=O)c1ccc(CBr)c(OC)c1
80 to 85 | CSCON=C(C(=O)O)c1nccc(NC=O)n1
150 to 153 | COc1cc2cc(CO)c(CO)c(-c3ccnc(-n4c(=O)cc(C(=O)N5CCN(CCO)CC5)c5ccccc54)c3)c2cc1OC
70 to 72 | O=C(NCCOCc1cccc(Cl)c1)c1c(Cl)cccc1Cl
104 to 105 | COc1ccc(C2=NN(CCCCCCN3C(=O)c4ccccc4C3=O)C(=O)[C@H]3CC=CC[C@@H]23)cc1OC (relative stereo)
123 to 125 | O=C(NCCCOc1ccncc1)c1cccs1
115 to 118 | CCCCCCCCCCCCCCC1Cc2ccc(C(=O)O)cc2N1C (racemic)
108 to 110 | CC(C)(C)OC(=O)NCC1CN(C(c2ccccc2)c2ccccc2)C1
157 to 158 | CCSNc1c(C#N)cnn1-c1c(Cl)cc(C(F)(F)F)cc1Cl

melting point [°C] | Compound
141 to 143 | CNC(=O)Nc1cccc(-c2noc(C(F)(F)F)n2)c1
202 to 203 | OCCNc1nc(NCc2ccccc2)c2ncc(Nc3ncncn3)cc2n1
148 to 150 | Nc1sc2c(c1C(=O)c1ccc(Cl)cc1)CCN(CCc1ccccc1)C2
117 to 120 | CCN1C(=O)C(C(=O)Nc2cccc(C(=O)Nc3ccc(Br)cc3)c2)c2cc(C(C)=O)ccc21 (stereo not drawn)
210 to 211 | Cc1cc(-c2nc3cccnn3c2-c2ccnc(NC(=O)c3ccc4ncccc4c3)c2)ccc1F
143 to 144 | Cc1oc(-c2ccccc2)nc1COc1ccc2cc(C/C=C/O)oc2c1
127 to 129 | CN1CC=C(c2c[nH]c3ccc(NC(=N)c4cccs4)cc23)C(F)C1 (stereo not drawn)
123 to 125 | O=C(c1cc2ccc(N3CCOCC3)cc2o1)C12CC3CC(CC(C3)C1)C2
204 to 207 | CC1(C)CC(=O)C2=C(C1)NC1=C(C(=O)CC(C)(C)C1)C2c1cccc(Oc2cnccn2)c1
154 to 157 | C=CCC(=CC(N)C(=O)O)CP(=O)(O)O (stereo not drawn)
94 to 95 | COC(=O)COc1c(C)cc(SCc2ccc(-c3ccc(C(F)(F)F)cn3)cc2)c2c1CCO2
168 to 170 | O=C(O)Cc1ccc(C(=O)c2ccccc2)cc1[N+](=O)[O-]
216 to 217 | COc1cc(-c2cc(=O)c3ccccc3o2)cc([N+](=O)[O-])c1OC
102 to 106 | CS(=O)(=O)Nc1cccc(NC(=O)C(=O)N2CCC(Cc3ccc(F)cc3)CC2)c1
81 | CC(C)(C)c1ccc(O)c(C=O)c1
110 | COc1ccccc1-c1ccc2ccc(NC(=O)c3cccc(Br)c3)nc2n1
167 to 169 | CC(C(=O)c1ncn2c1c(=O)n(C(C)C)c1ccccc12)C(=O)C1CC1 (stereo not drawn)
88 | CCCC(Oc1ccc2c(-c3ccc(Cl)cc3)noc2c1)C(=O)OCC (stereo not drawn)
128 | CC(C)(C)OC(=O)Cn1c(C(=O)O)cc2cc(N)ccc21
